Data: ChEMBL document CHEMBL1155451, “Complexes of bacterial nicotinate mononucleotide adenylyltransferase with inhibitors: implication for structure-based drug design and improvement” (J Med Chem, 2010)
Activity calls are given as the source filed them. The calls are words filed in the database; no cut-off is given here.

Tests used:
[1] = target: T1, Probable nicotinate-nucleotide adenylyltransferase (Bacillus anthracis, UniProt C3L5T6)
T1 sequence (C3L5T6 whole entry): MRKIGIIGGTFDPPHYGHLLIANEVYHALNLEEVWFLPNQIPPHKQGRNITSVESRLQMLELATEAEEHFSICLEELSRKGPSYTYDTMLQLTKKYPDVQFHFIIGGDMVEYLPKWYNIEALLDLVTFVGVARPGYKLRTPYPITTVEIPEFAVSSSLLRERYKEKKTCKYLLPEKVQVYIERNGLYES

[2] = target: T2, Probable nicotinate-nucleotide adenylyltransferase (Bacillus anthracis) (UniProt C3L5T6); assay: Inhibition of Bacillus anthracis nicotinate-nucleotide adenosyltransferase up to 100 uM preincubated for 5 mins before addition of substrate by malachite green reagent method
T2 sequence (whole entry): T1 sequence (C3L5T6 whole entry)

Row | Compound | IC50 [1] | inhibition [2]
1 | CC(/C=N/NC(=O)CCC(=O)Nc1ccc(Br)cc1)c1ccc2ccccc2c1 (stereo not drawn) | > 200 µM | –
2 | O=C(O)CN(/N=C/c1ccc(/C=N/N(CC(=O)O)C(=O)CCC(=O)Nc2ccccc2Cl)cc1)C(=O)CCC(=O)Nc1ccccc1Cl | – | inactive
3 | O=C(O)CN(/N=C/c1cccc2ccccc12)C(=O)CCC(=O)Nc1ccccc1Cl | > 200 µM | –
